The values that follow come from PubChem BioAssay (NCI).

Test systems include EKVX NSCLC; SF-295 CNS; ACHN renal; KM12 colon; NCI-H460 lung; HT29 colon; HL-60(TB) leukemia; HOP-62 NSCLC; SK-MEL-5 melanoma; MDA-MB-435.
What all share (assay): inhibition of tumour cell growth, NCI panel, 48 h

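Results reflect a 48-hour exposure of cells in 96-well plates to compound at five concentrations. TGI marks complete inhibition of growth.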 Bounds are passed on as bounds.

`CC(=O)c1ccc(Oc2c3ccccc3nc3ccccc23)cc1`: the TGI in the assay on EKVX NSCLC was determined as 35.1 µM; in the assay with SF-295 CNS, 28.2 µM; in the assay on ACHN renal, 15.9 µM; in the assay with KM12 colon it was 22.7 µM; in the assay with NCI-H460 lung it was 31.9 µM; in the assay on HT29 colon it was 6.69 µM. Also, the TGI in the assay with HL-60(TB) leukemia came out at 0.463 µM; with HOP-62 NSCLC, 29.5 µM; in the assay on SK-MEL-5 melanoma, 28.6 µM; in the assay with MDA-MB-435, 10.5 µM.

`O=C(ON=C1c2ccccc2C(Br)C(Br)c2ccccc21)c1ccccc1` (stereo not given): the TGI with EKVX NSCLC turned out to be 46.6 µM; with SF-295 CNS, 36.4 µM; in the assay on ACHN renal, 33 µM; with KM12 colon it was 33.5 µM; with NCI-H460 lung, 18.8 µM; in the assay with HT29 colon, 38 µM. Also, the TGI amounted to 1.22 µM with HL-60(TB) leukemia, 17.3 µM in the assay with HOP-62 NSCLC, 31.7 µM in the assay with SK-MEL-5 melanoma and 34.9 µM with MDA-MB-435.

For `CN(C)CCn1c(=O)c2ccc(NCCCN(C)CCCNc3ccc4c(=O)n(CCN(C)C)c(=O)n5c6ccc(O)cc6c(=O)c3c45)c3c(=O)c4cc(O)ccc4n(c1=O)c23`, the TGI is 0.929 µM with EKVX NSCLC; 2.33 µM with SF-295 CNS; 0.726 µM in the assay with ACHN renal; 0.553 µM in the assay with KM12 colon; 0.234 µM in the assay with NCI-H460 lung; 1.05 µM in the assay on HT29 colon. The TGI was 0.701 µM in the assay on HL-60(TB) leukemia, 1.51 µM in the assay with HOP-62 NSCLC, 0.171 µM in the assay with SK-MEL-5 melanoma and 0.18 µM in the assay on MDA-MB-435.

Regarding `CN(C)c1ccc(/C=C(\NC(=O)c2ccccc2)C(=O)NC(CC(=O)O)C(=O)O)cc1` (stereo not given), the TGI in the assay on EKVX NSCLC, with SF-295 CNS, in the assay on ACHN renal, in the assay on KM12 colon, with NCI-H460 lung and in the assay with HT29 colon was above 100 µM throughout. Besides, the TGI in the assay on HL-60(TB) leukemia, in the assay with HOP-62 NSCLC, with SK-MEL-5 melanoma and in the assay on MDA-MB-435 was above 100 µM throughout.

Take `O=C(CCc1cc(O)cc(O)c1)NCCc1cc(OCc2ccccc2)cc(OCc2ccccc2)c1`: the TGI came to 22.6 µM in the assay with EKVX NSCLC; 25.8 µM in the assay on SF-295 CNS; 15.6 µM in the assay on ACHN renal; 28.1 µM with KM12 colon; 14.4 µM in the assay with NCI-H460 lung; 41.9 µM in the assay on HT29 colon. Besides, the TGI with HL-60(TB) leukemia was 12.2 µM; in the assay on HOP-62 NSCLC it was 36.8 µM; with SK-MEL-5 melanoma it was 25.6 µM; in the assay on MDA-MB-435 it was 37.6 µM.

For `O=C1C=CC2(O[C@H](c3ccccc3)[C@@H](c3ccccc3)O2)[C@H](Sc2ccccc2O)C1`, the TGI was 3.31 µM in the assay on EKVX NSCLC; 15.6 µM in the assay on SF-295 CNS; 1.07 µM in the assay with ACHN renal; 6.45 µM with KM12 colon; 8.95 µM in the assay on NCI-H460 lung; 1.45 µM in the assay with HT29 colon. Besides, the TGI in the assay with HL-60(TB) leukemia stood at 2.82 µM; in the assay with HOP-62 NSCLC it was 3.98 µM; in the assay with SK-MEL-5 melanoma it was 2.22 µM; in the assay on MDA-MB-435, 0.982 µM.

`O=C(CC(NC(=O)C(F)(F)F)C(=O)O)OCc1ccccc1` (stereo not given): the TGI in the assay on EKVX NSCLC, with SF-295 CNS, in the assay with ACHN renal, with KM12 colon, with NCI-H460 lung and in the assay on HT29 colon was above 100 µM each time. Also, the TGI in the assay with HL-60(TB) leukemia, with HOP-62 NSCLC, with SK-MEL-5 melanoma and with MDA-MB-435 was above 100 µM in each case.

Take `Cc1c(C)n(-c2ccccc2)c2nc(S(C)=O)nc(S(C)=O)c12` (stereo not given): the TGI in the assay with EKVX NSCLC was 22.8 µM; in the assay on SF-295 CNS it was 32.2 µM; in the assay with ACHN renal, 18.5 µM; in the assay on KM12 colon, 28.1 µM; in the assay with NCI-H460 lung, 43.4 µM; with HT29 colon, 25.1 µM. Moreover, the TGI in the assay on HL-60(TB) leukemia turned out to be 3.39 µM; in the assay on HOP-62 NSCLC, 36.5 µM; with SK-MEL-5 melanoma it was 6.1 µM; in the assay with MDA-MB-435 it was 9.76 µM.

Regarding `COc1cccc(C2c3cc4c(cc3OC(O)C2C)OCO4)c1OC` (stereo not given), the TGI in the assay with EKVX NSCLC came out at 78.7 µM; with SF-295 CNS it was 17.3 µM; in the assay on ACHN renal, 30.8 µM; in the assay with KM12 colon, 33.9 µM; in the assay on NCI-H460 lung, 25.1 µM; in the assay on HT29 colon, 24.5 µM. Moreover, the TGI with HL-60(TB) leukemia came to 4.83 µM; in the assay with HOP-62 NSCLC, 80.1 µM; with SK-MEL-5 melanoma it was 21.8 µM; in the assay with MDA-MB-435, 33.9 µM.

In the case of `CN1CSC(=S)N(c2cccc(C(F)(F)F)c2)C1`, the TGI in the assay with EKVX NSCLC worked out at 67.7 µM; in the assay with SF-295 CNS it was 51.2 µM; with ACHN renal, 36.5 µM; with KM12 colon it was 50.7 µM; with NCI-H460 lung, 42.6 µM; in the assay with HT29 colon, 47.7 µM. For the same compound, the TGI in the assay on HL-60(TB) leukemia stood at 59 µM; in the assay with HOP-62 NSCLC, 70 µM; with SK-MEL-5 melanoma, 31.4 µM; in the assay with MDA-MB-435, 51.9 µM.

In the case of `c1ccc(C2=NC3OC2c2ccccc23)cc1` (stereo not given), the TGI in the assay with EKVX NSCLC, in the assay on SF-295 CNS, in the assay on ACHN renal, with KM12 colon, with NCI-H460 lung and with HT29 colon was above 10 µM in each case. In addition, the TGI with HL-60(TB) leukemia, in the assay on HOP-62 NSCLC, in the assay with SK-MEL-5 melanoma and with MDA-MB-435 was above 10 µM in each case.

Regarding `CCCCCCN(CCCCCC)C(=S)N/N=C(\C)c1ccccn1`, the TGI worked out at 3.01 µM with EKVX NSCLC; 3.19 µM in the assay on SF-295 CNS; 2.17 µM in the assay with ACHN renal; 2.73 µM in the assay on KM12 colon; 2.97 µM in the assay on NCI-H460 lung; 4.29 µM with HT29 colon. The TGI is 2.3 µM in the assay with HL-60(TB) leukemia, 3.32 µM with HOP-62 NSCLC, 2.57 µM with SK-MEL-5 melanoma and 3.7 µM in the assay on MDA-MB-435.

As to `COC1OC(C)C(NC(=O)OCC(Cl)(Cl)Cl)C2OC(C)(C)OC12` (stereo not given), the TGI in the assay on EKVX NSCLC, in the assay on SF-295 CNS, in the assay on ACHN renal, in the assay with KM12 colon, with NCI-H460 lung and with HT29 colon was above 100 µM each time. The TGI in the assay with HL-60(TB) leukemia, in the assay with HOP-62 NSCLC, in the assay on SK-MEL-5 melanoma and in the assay on MDA-MB-435 was above 100 µM each time.
